Converted amounts (≈) assume the structure as drawn. Where only a bound is given, the exact number is not on record here.

One test relates to Staph. Aur. Briefly: antimicrobial activity, minimal inhibitory concentration, Staph. Aur. In kind it is cell-based. As to the method: (§1) The antimicrobial activity of some compounds according to the present invention was measured and the results are shown in the following Tables. The activity is indicated as the minimal inhibitory concentration in μg/ml.
The subject of a further test is B. Cereus. Put plainly: antimicrobial activity, minimal inhibitory concentration, B. Cereus. In kind it is cell-based. To be noted: Bacillus cereus. As to the method:
as §1

For a further test, the system named is B. Subtilis. Briefly: antimicrobial activity, minimal inhibitory concentration, B. Subtilis. In kind it is cell-based. To be noted: Bacillus subtilis. As to the method: as §1
A further test concerns Shig. Flex. Put plainly: antimicrobial activity, minimal inhibitory concentration, Shig. Flex. In kind it is cell-based. As to the method:
as §1

Test [1] has as its system E. Coli. Briefly: antimicrobial activity, minimal inhibitory concentration, E. Coli. In kind it is cell-based. To be noted: Escherichia coli. As to the method: as §1
A further test deals with Trichophyt. Rubrum. Briefly: antimicrobial activity, minimal inhibitory concentration, Trichophyt. Rubrum. In kind it is cell-based. As to the method:
as §1

Another test deals with Mycoplasma gallisept. Briefly: antimicrobial activity, minimal inhibitory concentration, Mycoplasma gallisept. In kind it is cell-based. As to the method: as §1
Another test has as its system Cand. Alb. Briefly: antimicrobial activity, minimal inhibitory concentration, Cand. Alb. In kind it is cell-based. As to the method: as §1
Another test concerns Crypt. Neof. Put plainly: antimicrobial activity, minimal inhibitory concentration, Crypt. Neof. In kind it is cell-based. As to the method: as §1
In a further test the test system is Salm. Typh. Briefly: antimicrobial activity, minimal inhibitory concentration, Salm. Typh. In kind it is cell-based. To be noted: read-out: minimal inhibitory concentration. As to the method: as §1
Another test has as its system Proteus. Put plainly: antimicrobial activity, minimal inhibitory concentration, Proteus. In kind it is cell-based. As to the method: as §1
Test [2] concerns E. Coli. Put plainly: Systemic E. Coli infection in mice. In kind it is in vivo. The note with it: systemic E. Coli infection, 2,5 mg × 2 per day. As to the method:
(§2) Some compounds of general formula Id were tested also in vivo.

In another test the test system is St. aur. Put plainly: Systemic St. aur infection in mice. The note with it: systemic St. aur infection, 2,5 mg × 2 per day. In kind it is in vivo. As to the method: as §2
A further test has as its system Pseud. Aur. Briefly: antimicrobial activity, minimal inhibitory concentration, Pseud. Aur. In kind it is cell-based. As to the method: as §1

For the compound `[O-][n+]1cc(C(Cl)=NO)[n+]([O-])c2ccccc21` [Example 6, 2(α-chloro)-carboxaldoxime-quinoxaline-1,4-dioxide], the MIC was 25 µg/mL (≈ 104 µM) with Staph. Aur.; 25 µg/mL (≈ 104 µM) against B. Cereus; 11 to 100 µg/mL (≈ 45.9 to 417 µM) in the test with B. Subtilis; 11 to 100 µg/mL (≈ 45.9 to 417 µM) in the test on Shig. Flex.; 25 µg/mL (≈ 104 µM) with E. Coli [1]; 11 to 100 µg/mL (≈ 45.9 to 417 µM) against Trichophyt. Rubrum. The compound further gave an MIC with Mycoplasma gallisept of 25 to 50 µg/mL (≈ 104 to 209 µM).
Regarding `Cc1ccc2c(c1)[n+]([O-])c(C(Cl)=NO)c[n+]2[O-]` [Example 7, 2-(α-chloro)-carboxaldoxime-7-methyl-quinoxaline-1,4-dioxide], the MIC against Staph. Aur. was 25 µg/mL (≈ 98.6 µM); in the test on B. Cereus, 25 µg/mL (≈ 98.6 µM); against B. Subtilis, 11 to 100 µg/mL (≈ 43.4 to 394 µM); in the test on Shig. Flex. it was 11 to 100 µg/mL (≈ 43.4 to 394 µM); against E. Coli [1], 25 µg/mL (≈ 98.6 µM); against Cand. Alb. it was 25 µg/mL (≈ 98.6 µM). The figures for the MIC against Trichophyt. Rubrum and in the test on Crypt. Neof. were 25 µg/mL (≈ 98.6 µM) and 50 µg/mL (≈ 197 µM), respectively.
Regarding `[O-][n+]1cc(C(Cl)=NO)[n+]([O-])c2cc(Cl)ccc21` [Example 8, 2-(α-chloro)-carboxaldoxime-7-chloro-quinoxaline-1,4-dioxide], the MIC against Staph. Aur. was 25 µg/mL (≈ 91.2 µM); with B. Cereus, 10 µg/mL (≈ 36.5 µM); with B. Subtilis, 11 to 100 µg/mL (≈ 40.1 to 365 µM); against Shig. Flex., 11 to 100 µg/mL (≈ 40.1 to 365 µM); against E. Coli [1] it was 25 µg/mL (≈ 91.2 µM); in the test with Trichophyt. Rubrum, 11 to 100 µg/mL (≈ 40.1 to 365 µM). Moreover, the MIC with Mycoplasma gallisept lay in the range of 10 to 25 µg/mL (≈ 36.5 to 91.2 µM).
For `Cc1cc2c(cc1C)[n+]([O-])c(C(Cl)=NO)c[n+]2[O-]` [Example 9, 2-(α-chloro)-carboxaldoxime-6.7-dimethyl-quinoxaline-1,4-dioxide], the MIC was 11 to 100 µg/mL (≈ 41.1 to 374 µM) with Staph. Aur.; 11 to 100 µg/mL (≈ 41.1 to 374 µM) against B. Cereus; above 100 µg/mL with B. Subtilis; above 100 µg/mL in the test on Shig. Flex.; above 100 µg/mL in the test with Salm. Typh.; above 100 µg/mL with E. Coli [1]. The compound further showed an MIC with Trichophyt. Rubrum of 11 to 100 µg/mL (≈ 41.1 to 374 µM).
On to `CCC(=O)ON=C(Cl)c1c[n+]([O-])c2ccc(Cl)cc2[n+]1[O-]` [Example 10, 2-(α-chloro-0-propionyl)-carboxaldoxime-7-chloro-quinoxaline-1,4-dioxide], for which the MIC in the test with Staph. Aur. was 11 to 100 µg/mL (≈ 33.3 to 303 µM); against B. Subtilis, 11 to 100 µg/mL (≈ 33.3 to 303 µM); with Cand. Alb., 1 µg/mL (≈ 3.03 µM); in the test with Trichophyt. Rubrum it was 1 µg/mL (≈ 3.03 µM); against Crypt. Neof., 1 µg/mL (≈ 3.03 µM).
Turning to `CC(=O)ON=C(Cl)c1c[n+]([O-])c2ccc(Cl)cc2[n+]1[O-]` [Example 11, 2-[α-chloro-(0-acetyl)-carboxaldoxime]-7-chloro-quinoxaline-1,4-dioxide], the MIC in the test on Staph. Aur. is 11 to 100 µg/mL (≈ 34.8 to 316 µM); against B. Subtilis, 11 to 100 µg/mL (≈ 34.8 to 316 µM); against Shig. Flex., 11 to 100 µg/mL (≈ 34.8 to 316 µM); against Cand. Alb., 1 µg/mL (≈ 3.16 µM); against Trichophyt. Rubrum, 2 µg/mL (≈ 6.33 µM); against Crypt. Neof. it was 2 µg/mL (≈ 6.33 µM).
Regarding `CC(=O)ON=C(Cl)c1c[n+]([O-])c2ccc(C)cc2[n+]1[O-]` [Example 12, 2-[α-chloro-(0-acetyl)-7-methyl-quinoxaline]-1,4-dioxide], the MIC is 11 to 100 µg/mL (≈ 37.2 to 338 µM) in the test on B. Subtilis; 11 to 100 µg/mL (≈ 37.2 to 338 µM) in the test on Shig. Flex.; 10 µg/mL (≈ 33.8 µM) in the test with Cand. Alb.; 1 µg/mL (≈ 3.38 µM) with Trichophyt. Rubrum; 10 µg/mL (≈ 33.8 µM) against Crypt. Neof..
On to `O=C(CCl)ON=C(Cl)c1c[n+]([O-])c2ccccc2[n+]1[O-]` [Example 13, 2-[α-chloro-(0-chloroacetylcarboxaldoxime)]-quinoxaline-1,4-dioxide], for which the MIC in the test with Staph. Aur. is 20 µg/mL (≈ 63.3 µM); in the test with B. Cereus, 25 µg/mL (≈ 79.1 µM); with B. Subtilis it was 11 to 100 µg/mL (≈ 34.8 to 316 µM); in the test with Shig. Flex., 11 to 100 µg/mL (≈ 34.8 to 316 µM); in the test with Salm. Typh., 50 µg/mL (≈ 158 µM); in the test with E. Coli [1], 25 µg/mL (≈ 79.1 µM). The figures for the MIC with Trichophyt. Rubrum and in the test with Mycoplasma gallisept were 11 to 100 µg/mL (≈ 34.8 to 316 µM) and 25 µg/mL (≈ 79.1 µM), respectively.
With `O=C(ON=C(Cl)c1c[n+]([O-])c2ccccc2[n+]1[O-])c1ccc([N+](=O)[O-])cc1` [Example 14], the MIC was 11 to 100 µg/mL (≈ 28.3 to 257 µM) in the test on Shig. Flex., 11 to 100 µg/mL (≈ 28.3 to 257 µM) in the test on Salm. Typh., 11 to 100 µg/mL (≈ 28.3 to 257 µM) against Trichophyt. Rubrum and 50 µg/mL (≈ 129 µM) against Mycoplasma gallisept.
Take `CCOC(=NO)c1c[n+]([O-])c2ccccc2[n+]1[O-]` [Example 17 (ethoxy), 2-(α-ethoxy)-carboxaldoxime-quinoxaline-1,4 dioxide]: the MIC with Staph. Aur. is 10 µg/mL (≈ 40.1 µM); in the test with B. Subtilis, 11 to 100 µg/mL (≈ 44.1 to 401 µM); against Shig. Flex., 11 to 100 µg/mL (≈ 44.1 to 401 µM); in the test on Salm. Typh., 11 to 100 µg/mL (≈ 44.1 to 401 µM); against E. Coli [1], 11 to 100 µg/mL (≈ 44.1 to 401 µM).
For `COC(=NO)c1c[n+]([O-])c2ccccc2[n+]1[O-]` [Example 17 (methoxy), 2-(α-methoxy)-carboxaldoxime-quinoxaline-1,4-dioxide], the MIC against Staph. Aur. is 10 µg/mL (≈ 42.5 µM); in the test with B. Cereus it was 10 µg/mL (≈ 42.5 µM); against B. Subtilis, 11 to 100 µg/mL (≈ 46.8 to 425 µM); with Shig. Flex. it was 11 to 100 µg/mL (≈ 46.8 to 425 µM); against E. Coli [1], 10 µg/mL (≈ 42.5 µM); in the test on Mycoplasma gallisept, 2 to 10 µg/mL (≈ 8.5 to 42.5 µM).
For the compound `CCNC(=NO)c1c[n+]([O-])c2ccccc2[n+]1[O-]` [Example 18, 2-(N-ethylamino)-carboxamidoxime-quinoxaline-1,4-dioxide], the MIC in the test on Staph. Aur. was 10 µg/mL (≈ 40.3 µM); with B. Cereus, 25 µg/mL (≈ 101 µM); in the test on Salm. Typh. it was 25 µg/mL (≈ 101 µM); against E. Coli [1] it was 25 µg/mL (≈ 101 µM); with Mycoplasma gallisept it was 10 to 25 µg/mL (≈ 40.3 to 101 µM); with Proteus, 11 to 100 µg/mL (≈ 44.3 to 403 µM). The Protection result in the test with E. Coli [2] was “+ (indicates protection >80%)”; in the test on St. aur, “+/- (indicates protection 50-80%)”.
Turning to `CN(C)NC(=NO)c1c[n+]([O-])c2ccccc2[n+]1[O-]` [Example 21e, 2-(α-N-dimethyl-hydrazino)-carboxaldoxime-quinoxaline-1,4-dioxide], the MIC was 10 to 25 µg/mL (≈ 38 to 95 µM) against Staph. Aur.; 10 µg/mL (≈ 38 µM) against B. Cereus; 100 µg/mL (≈ 380 µM) with Salm. Typh.; 2 to 10 µg/mL (≈ 7.6 to 38 µM) in the test on E. Coli [1]; 25 µg/mL (≈ 95 µM) in the test with Mycoplasma gallisept.
For `CCN(CC)C(=NO)c1c[n+]([O-])c2ccccc2[n+]1[O-]` [Example 22, 2-(N-diethylamino)-carboxaldoxime-quinoxaline-1,4-dioxide], the MIC is 11 to 100 µg/mL (≈ 39.8 to 362 µM) against Staph. Aur.; 11 to 100 µg/mL (≈ 39.8 to 362 µM) against B. Cereus; 50 µg/mL (≈ 181 µM) in the test on Salm. Typh.; 50 µg/mL (≈ 181 µM) against E. Coli [1]; 10 µg/mL (≈ 36.2 µM) in the test on Pseud. Aur..
As for `CC(=O)NNC(=NO)c1c[n+]([O-])c2ccccc2[n+]1[O-]` [Example 24, 2-N-(acetyl-hydrazino)-carboxaldoxime-quinoxaline-1,4-dioxide], the MIC was 10 µg/mL (≈ 36.1 µM) with Staph. Aur.; 11 to 100 µg/mL (≈ 39.7 to 361 µM) against B. Cereus; 11 to 100 µg/mL (≈ 39.7 to 361 µM) in the test on Salm. Typh.; 11 to 100 µg/mL (≈ 39.7 to 361 µM) with E. Coli [1]; 11 to 100 µg/mL (≈ 39.7 to 361 µM) against Trichophyt. Rubrum; 11 to 100 µg/mL (≈ 39.7 to 361 µM) with Proteus. Further, the Protection entry in the test with E. Coli [2] and with St. aur was “+ (indicates protection >80%)” throughout.
On to `CCC(=O)ON=C(Cl)c1c[n+]([O-])c2ccccc2[n+]1[O-]` [Y = H, R = CH2CH3], for which the MIC was 10 µg/mL (≈ 33.8 µM) in the test on Staph. Aur.; 25 µg/mL (≈ 84.6 µM) against B. Cereus; 11 to 100 µg/mL (≈ 37.2 to 338 µM) with B. Subtilis; 11 to 100 µg/mL (≈ 37.2 to 338 µM) with Shig. Flex.; 25 µg/mL (≈ 84.6 µM) in the test with Salm. Typh.; 25 µg/mL (≈ 84.6 µM) in the test with E. Coli [1].
As to `[O-][n+]1cc(C(=NO)NN2CCOCC2)[n+]([O-])c2ccccc21` [drawing 5], the values for the MIC in the test on Staph. Aur., with B. Subtilis and in the test on Trichophyt. Rubrum were 11 to 100 µg/mL (≈ 36 to 328 µM), 11 to 100 µg/mL (≈ 36 to 328 µM) and 1 µg/mL (≈ 3.28 µM), respectively.
In the case of `CN1CCN(C(=NO)c2c[n+]([O-])c3ccccc3[n+]2[O-])CC1` [drawing 6], the MIC was 25 µg/mL (≈ 82.4 µM) in the test with Staph. Aur.; 25 µg/mL (≈ 82.4 µM) in the test on B. Cereus; 25 µg/mL (≈ 82.4 µM) against E. Coli [1]; 10 µg/mL (≈ 33 µM) in the test with Mycoplasma gallisept; 11 to 100 µg/mL (≈ 36.3 to 330 µM) against Proteus; 11 to 100 µg/mL (≈ 36.3 to 330 µM) against Pseud. Aur..
